{"source": "ChEMBL document CHEMBL1201862", "about": "“PubChem BioAssay data set” (2004)", "key": {"[1]": {"biological_target": "T1, Heat shock factor protein 1 (Mus musculus, UniProt P38532)", "T1 sequence (P38532 whole entry)": "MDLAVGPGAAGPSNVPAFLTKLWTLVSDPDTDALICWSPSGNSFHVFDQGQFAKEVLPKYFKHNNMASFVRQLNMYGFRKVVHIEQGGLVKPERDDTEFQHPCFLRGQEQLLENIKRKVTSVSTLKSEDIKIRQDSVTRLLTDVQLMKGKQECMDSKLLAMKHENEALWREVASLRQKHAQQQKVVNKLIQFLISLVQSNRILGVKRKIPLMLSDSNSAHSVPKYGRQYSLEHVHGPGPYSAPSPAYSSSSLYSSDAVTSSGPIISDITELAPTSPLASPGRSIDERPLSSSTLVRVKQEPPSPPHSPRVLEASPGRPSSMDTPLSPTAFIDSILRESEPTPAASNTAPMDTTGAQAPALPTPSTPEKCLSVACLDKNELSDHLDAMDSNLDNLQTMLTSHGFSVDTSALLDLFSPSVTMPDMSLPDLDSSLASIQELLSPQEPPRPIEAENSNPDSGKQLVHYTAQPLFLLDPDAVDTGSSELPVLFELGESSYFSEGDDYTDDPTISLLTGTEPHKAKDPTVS", "experiment": "inhibition of MG132-induced HSE-luciferase signal, confirmation, cell-based, NIH3T3, luminescence, dose retest (AID 2382);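 further: NIH3T3 fibroblasts with HSF1-driven luciferase reporter stressed by proteasome inhibitor MG132; luminescence from HSF1-driven luciferase expression after 8 hours of MG132 stress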", "format": "functional"}, "[2]": {"biological_target": "Eukaryotic translation initiation factor 4H (Homo sapiens, UniProt Q15056)", "experiment": "eIF4H inhibition in translation initiation, SAR follow-up (AID 435011)", "format": "functional"}, "[3]": {"biological_target": "Polyadenylate-binding protein 1 (Homo sapiens, UniProt P11940)", "sequence (P11940 whole entry)": "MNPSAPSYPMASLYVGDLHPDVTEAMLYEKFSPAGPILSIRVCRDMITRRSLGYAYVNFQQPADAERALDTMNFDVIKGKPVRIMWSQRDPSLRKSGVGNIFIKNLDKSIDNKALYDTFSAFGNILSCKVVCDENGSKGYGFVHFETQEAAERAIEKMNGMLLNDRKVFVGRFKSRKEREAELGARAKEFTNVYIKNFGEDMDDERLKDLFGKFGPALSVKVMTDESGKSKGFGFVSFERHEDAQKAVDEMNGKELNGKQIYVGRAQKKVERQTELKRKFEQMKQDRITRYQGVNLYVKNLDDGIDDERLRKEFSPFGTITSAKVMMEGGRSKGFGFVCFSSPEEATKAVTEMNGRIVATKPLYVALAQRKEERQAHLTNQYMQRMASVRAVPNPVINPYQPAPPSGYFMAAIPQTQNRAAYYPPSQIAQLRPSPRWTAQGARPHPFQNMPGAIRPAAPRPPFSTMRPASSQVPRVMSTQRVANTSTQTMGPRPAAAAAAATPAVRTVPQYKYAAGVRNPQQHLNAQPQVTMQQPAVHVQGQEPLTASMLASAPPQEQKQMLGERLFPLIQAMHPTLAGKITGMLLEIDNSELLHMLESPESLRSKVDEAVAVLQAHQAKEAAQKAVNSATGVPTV", "experiment": "PABP inhibition in translation initiation, SAR follow-up (AID 435018)", "format": "functional"}, "[4]": {"biological_target": "Phosphomannomutase 2 (Homo sapiens, UniProt O15305)", "sequence (O15305 whole entry)": "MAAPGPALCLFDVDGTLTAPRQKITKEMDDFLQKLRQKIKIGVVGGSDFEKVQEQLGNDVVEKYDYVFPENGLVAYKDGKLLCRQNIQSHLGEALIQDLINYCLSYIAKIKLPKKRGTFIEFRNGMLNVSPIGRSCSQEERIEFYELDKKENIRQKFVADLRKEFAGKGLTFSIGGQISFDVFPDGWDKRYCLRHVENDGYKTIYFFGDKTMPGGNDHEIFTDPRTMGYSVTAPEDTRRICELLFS", "experiment": "Counter screen SAR assay for PMM2 inhibitors via a fluorescence intensity assay. [Related pubchem assays (depositor defined):AID1545, AID1574]"}, "[5]": {"biological_target": "T2, Mannose-6-phosphate isomerase (Homo sapiens, UniProt P34949)", "T2 sequence (P34949 whole entry)": "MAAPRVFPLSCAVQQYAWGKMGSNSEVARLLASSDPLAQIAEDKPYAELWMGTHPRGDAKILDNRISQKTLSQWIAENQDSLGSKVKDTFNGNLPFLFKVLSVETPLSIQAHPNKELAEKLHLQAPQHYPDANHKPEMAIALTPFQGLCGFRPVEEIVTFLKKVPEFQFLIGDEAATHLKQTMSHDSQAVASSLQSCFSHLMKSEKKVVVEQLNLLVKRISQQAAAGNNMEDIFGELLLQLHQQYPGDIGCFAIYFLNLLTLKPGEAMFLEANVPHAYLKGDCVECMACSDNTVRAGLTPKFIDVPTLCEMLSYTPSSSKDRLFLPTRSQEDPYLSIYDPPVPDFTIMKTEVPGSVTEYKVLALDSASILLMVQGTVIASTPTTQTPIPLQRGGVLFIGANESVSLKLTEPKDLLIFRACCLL", "experiment": "inhibitors of human PMI, primary screen, biochemical, fluorescence intensity, coupled assay (AID 1209)"}, "[6]": {"biological_target": "T2, Mannose-6-phosphate isomerase", "experiment": "PMI enzyme inhibitors, confirmation, biochemical, fluorescence intensity (AID 1535)"}, "[7]": {"biological_target": "T3, Low molecular weight phosphotyrosine protein phosphatase (Homo sapiens, UniProt P24666)", "T3 sequence (P24666 whole entry)": "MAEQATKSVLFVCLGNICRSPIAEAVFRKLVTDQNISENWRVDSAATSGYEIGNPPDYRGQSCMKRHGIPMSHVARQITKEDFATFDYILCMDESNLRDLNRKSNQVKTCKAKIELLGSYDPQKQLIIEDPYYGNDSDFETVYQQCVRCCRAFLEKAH", "format": "functional", "conditions": "read-out: IC50_Mean"}, "[8]": {"experiment": "HEp-2 cell cytotoxicity, dose response, cytotoxicity control for RSV inhibitor project, HTS (AID 2410)", "format": "functional", "conditions": "human respiratory syncytial virus"}, "[9]": {"biological_target": "T4, Tyrosine-protein phosphatase non-receptor type 11 (Homo sapiens, UniProt Q06124)", "T4 sequence (Q06124 whole entry)": "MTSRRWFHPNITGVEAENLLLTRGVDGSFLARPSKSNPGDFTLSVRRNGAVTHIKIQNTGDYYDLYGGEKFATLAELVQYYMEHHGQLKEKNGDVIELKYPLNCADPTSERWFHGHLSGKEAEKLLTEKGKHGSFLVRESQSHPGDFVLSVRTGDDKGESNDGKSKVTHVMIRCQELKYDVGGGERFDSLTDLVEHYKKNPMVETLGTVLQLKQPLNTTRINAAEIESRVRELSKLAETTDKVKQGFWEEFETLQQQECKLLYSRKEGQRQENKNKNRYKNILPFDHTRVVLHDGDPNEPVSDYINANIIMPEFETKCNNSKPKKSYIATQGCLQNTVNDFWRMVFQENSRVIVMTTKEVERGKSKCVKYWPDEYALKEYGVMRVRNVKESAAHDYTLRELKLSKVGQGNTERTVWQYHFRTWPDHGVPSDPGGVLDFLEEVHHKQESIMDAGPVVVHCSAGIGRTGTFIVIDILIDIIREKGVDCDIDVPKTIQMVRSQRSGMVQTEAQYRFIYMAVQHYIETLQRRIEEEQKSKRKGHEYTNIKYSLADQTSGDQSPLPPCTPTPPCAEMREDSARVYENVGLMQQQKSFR", "experiment": "SHP2 phosphatase inhibition, dose response, selectivity assay for STEP inhibitor project, biochemical (AID 602367)", "format": "functional", "conditions": "read-out: IC50_Mean"}, "[10]": {"biological_target": "Envelope glycoprotein gp160 (Human immunodeficiency virus 1, UniProt Q6QLK5)", "sequence (Q6QLK5 whole entry, the tested form may be a part)": "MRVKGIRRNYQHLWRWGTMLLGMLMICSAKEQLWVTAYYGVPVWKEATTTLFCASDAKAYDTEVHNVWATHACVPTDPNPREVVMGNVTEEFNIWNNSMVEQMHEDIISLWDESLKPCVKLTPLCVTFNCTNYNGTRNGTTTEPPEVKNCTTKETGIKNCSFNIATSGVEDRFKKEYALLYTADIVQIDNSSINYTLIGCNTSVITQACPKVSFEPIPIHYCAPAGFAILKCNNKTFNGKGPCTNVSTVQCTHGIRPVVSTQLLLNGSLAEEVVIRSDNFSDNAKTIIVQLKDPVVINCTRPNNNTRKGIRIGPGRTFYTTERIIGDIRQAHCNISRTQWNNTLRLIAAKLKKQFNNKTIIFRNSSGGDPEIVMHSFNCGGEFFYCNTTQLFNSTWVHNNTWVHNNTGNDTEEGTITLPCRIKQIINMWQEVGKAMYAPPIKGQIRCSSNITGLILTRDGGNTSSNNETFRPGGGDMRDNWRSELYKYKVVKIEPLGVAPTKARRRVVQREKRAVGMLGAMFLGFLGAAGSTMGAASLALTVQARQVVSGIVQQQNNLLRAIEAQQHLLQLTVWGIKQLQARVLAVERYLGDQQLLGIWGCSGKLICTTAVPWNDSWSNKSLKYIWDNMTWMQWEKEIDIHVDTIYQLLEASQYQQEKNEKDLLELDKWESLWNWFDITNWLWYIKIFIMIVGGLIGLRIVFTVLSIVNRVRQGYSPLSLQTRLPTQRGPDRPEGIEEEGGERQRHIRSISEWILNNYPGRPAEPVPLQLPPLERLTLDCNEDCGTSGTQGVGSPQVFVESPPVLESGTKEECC", "experiment": "inhibitors of HIV fusion peptide binding, primary screen, biochemical, uHTS, fluorescence dequenching (AID 1986)"}, "[11]": {"biological_target": "T5, Dual specificity protein phosphatase 6 (Rattus norvegicus, UniProt Q64346)", "T5 sequence (Q64346 whole entry)": "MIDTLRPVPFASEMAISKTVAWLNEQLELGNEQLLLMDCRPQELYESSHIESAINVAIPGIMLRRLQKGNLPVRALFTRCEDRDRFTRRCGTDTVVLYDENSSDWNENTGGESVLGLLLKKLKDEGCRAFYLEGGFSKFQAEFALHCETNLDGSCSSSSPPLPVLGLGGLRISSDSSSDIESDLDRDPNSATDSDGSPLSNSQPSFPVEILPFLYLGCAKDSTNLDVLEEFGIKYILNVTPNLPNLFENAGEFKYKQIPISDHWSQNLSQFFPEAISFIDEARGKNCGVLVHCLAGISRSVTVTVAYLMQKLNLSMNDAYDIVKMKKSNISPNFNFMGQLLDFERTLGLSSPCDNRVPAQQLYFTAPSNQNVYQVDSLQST", "experiment": "MKP-3 phosphatase inhibitors, primary screen, biochemical, rat enzyme, in vitro (AID 425)"}, "[12]": {"biological_target": "T6, Dual specificity protein phosphatase 3 (Homo sapiens, UniProt P51452)", "T6 sequence (P51452 whole entry)": "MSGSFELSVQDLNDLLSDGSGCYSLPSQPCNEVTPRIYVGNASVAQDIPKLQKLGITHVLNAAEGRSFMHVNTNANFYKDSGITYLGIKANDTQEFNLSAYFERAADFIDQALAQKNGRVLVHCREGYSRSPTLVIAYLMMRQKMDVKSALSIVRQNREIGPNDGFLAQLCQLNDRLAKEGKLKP", "experiment": "VHR phosphatase inhibition, dose response, selectivity assay for STEP inhibitor project, biochemical (AID 602374)", "format": "functional", "conditions": "read-out: IC50_Mean"}, "[13]": {"biological_target": "T3, Low molecular weight phosphotyrosine protein phosphatase", "format": "functional", "conditions": "read-out: IC50_Mean", "remark": "listed apart in the source"}, "[14]": {"biological_target": "T6, Dual specificity protein phosphatase 3", "experiment": "VHR1 phosphatase inhibitors, primary screen, biochemical, absorbance, uHTS (AID 1654)"}, "[15]": {"biological_target": "T7, Tyrosine-protein phosphatase non-receptor type 5 (Homo sapiens, UniProt P54829)", "T7 sequence (P54829 whole entry)": "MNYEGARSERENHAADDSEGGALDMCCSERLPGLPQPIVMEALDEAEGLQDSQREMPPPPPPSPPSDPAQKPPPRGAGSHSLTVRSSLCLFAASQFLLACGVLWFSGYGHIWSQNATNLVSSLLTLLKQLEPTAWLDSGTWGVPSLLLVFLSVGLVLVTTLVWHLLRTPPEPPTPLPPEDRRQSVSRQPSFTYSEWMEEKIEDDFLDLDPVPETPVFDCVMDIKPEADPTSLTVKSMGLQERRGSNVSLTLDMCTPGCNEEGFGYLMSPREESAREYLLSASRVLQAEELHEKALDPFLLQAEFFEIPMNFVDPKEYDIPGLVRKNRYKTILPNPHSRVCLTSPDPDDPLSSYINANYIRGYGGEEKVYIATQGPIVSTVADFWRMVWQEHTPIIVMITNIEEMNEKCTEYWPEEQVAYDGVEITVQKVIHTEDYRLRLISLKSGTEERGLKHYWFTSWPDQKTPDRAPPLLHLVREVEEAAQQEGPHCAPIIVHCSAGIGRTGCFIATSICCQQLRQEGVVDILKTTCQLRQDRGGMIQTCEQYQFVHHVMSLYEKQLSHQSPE", "experiment": "STEP phosphatase inhibitors, confirmation, biochemical, fluorescence intensity, uHTS hits (AID 602372)", "format": "functional", "conditions": "read-out: IC50_Mean"}, "[16]": {"experiment": "cells"}, "[17]": {"biological_target": "T8, Tyrosine-protein phosphatase non-receptor type 22 (Homo sapiens, UniProt Q9Y2R2)", "T8 sequence (Q9Y2R2 whole entry)": "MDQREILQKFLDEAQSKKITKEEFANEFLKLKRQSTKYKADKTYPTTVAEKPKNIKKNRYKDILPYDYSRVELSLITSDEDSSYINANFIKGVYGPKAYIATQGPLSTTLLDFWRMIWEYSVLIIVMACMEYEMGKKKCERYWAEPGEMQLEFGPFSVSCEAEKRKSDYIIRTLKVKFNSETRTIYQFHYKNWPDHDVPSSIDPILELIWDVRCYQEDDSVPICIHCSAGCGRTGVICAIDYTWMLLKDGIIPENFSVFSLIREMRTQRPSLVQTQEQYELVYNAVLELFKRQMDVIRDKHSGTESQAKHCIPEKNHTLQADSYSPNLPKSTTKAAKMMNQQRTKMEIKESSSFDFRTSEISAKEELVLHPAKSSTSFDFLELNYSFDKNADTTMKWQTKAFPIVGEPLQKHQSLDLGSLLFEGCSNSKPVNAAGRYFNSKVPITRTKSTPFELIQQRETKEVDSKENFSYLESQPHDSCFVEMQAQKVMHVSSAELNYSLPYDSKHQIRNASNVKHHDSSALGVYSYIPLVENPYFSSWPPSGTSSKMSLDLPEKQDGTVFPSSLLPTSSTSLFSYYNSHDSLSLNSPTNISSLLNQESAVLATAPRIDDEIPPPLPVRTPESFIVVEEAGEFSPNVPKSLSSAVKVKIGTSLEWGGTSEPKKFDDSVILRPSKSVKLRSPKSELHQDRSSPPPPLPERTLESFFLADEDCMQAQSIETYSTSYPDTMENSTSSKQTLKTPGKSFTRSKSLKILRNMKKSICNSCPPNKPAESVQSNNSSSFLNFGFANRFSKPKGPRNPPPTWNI", "experiment": "PTPN22 phosphatase inhibition, dose response, selectivity assay for STEP inhibitor project, biochemical (AID 624241)", "format": "functional"}, "[18]": {"biological_target": "T9, Carboxy-terminal domain RNA polymerase II polypeptide A small phosphatase 1 (Homo sapiens, UniProt Q9GZU7)", "T9 sequence (Q9GZU7 whole entry)": "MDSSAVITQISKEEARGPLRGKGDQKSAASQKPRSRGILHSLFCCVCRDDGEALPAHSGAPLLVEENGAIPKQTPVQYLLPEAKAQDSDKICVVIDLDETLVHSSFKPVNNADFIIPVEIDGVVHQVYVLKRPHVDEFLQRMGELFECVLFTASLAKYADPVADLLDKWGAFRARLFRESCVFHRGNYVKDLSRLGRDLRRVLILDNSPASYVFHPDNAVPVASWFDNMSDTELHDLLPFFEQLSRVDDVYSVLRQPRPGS", "experiment": "inhibitors of CTDSP1, concentration-response testing, biochemical assay, absorbance-based, actives from ultra-high-throughput screening (AID 540297)", "format": "functional"}, "[19]": {"biological_target": "T8, Tyrosine-protein phosphatase non-receptor type 22", "experiment": "LYP phosphatase inhibition for selectivity, dose response, selectivity assay for LMPTP inhibitor project, biochemical, fluorescence, LYP catalytic domain (AID 652006)", "format": "functional", "conditions": "read-out: IC50_Mean"}, "[20]": {"biological_target": "T6, Dual specificity protein phosphatase 3", "experiment": "VHR1 phosphatase inhibitors, biochemical (AID 1878)"}}, "note": "Calls of active or inactive are those of the source.", "data": [{"smiles": "COc1ccc(CCNC(=O)CSc2ccc(-c3ccco3)nn2)cc1", "values": [{"measurement": "EC50", "setting": "[1]", "value": "> 195 µM (not active)"}, {"measurement": "IC50", "setting": "[2]", "value": "70.3 µM (active)"}, {"measurement": "IC50", "setting": "[3]", "value": "> 100 µM (inactive)"}]}, {"smiles": "CCc1ccc(NC2Nc3cc(C)nn3S2)cc1", "note": "(stereo not given)", "values": [{"measurement": "IC50", "setting": "[4]", "value": "> 100 µM (inactive)"}, {"measurement": "IC50", "setting": "[5]", "value": "8.43 µM (active)"}, {"measurement": "IC50", "setting": "[6]", "value": "> 50 µM (inactive)"}]}, {"smiles": "CCOc1cc(/C=N/NC2=NC(=O)C(CC(=O)O)S2)ccc1OCc1ccc(Cl)cc1Cl", "note": "(stereo not given)", "values": [{"measurement": "IC50", "setting": "[7]", "value": "8.68 µM (active)"}, {"measurement": "CC50", "setting": "[8]", "value": "20.8 µM (active)"}, {"measurement": "IC50", "setting": "[9]", "value": "2.2 µM (active)"}, {"measurement": "IC50", "setting": "[10]", "value": "13.6 µM (active)"}, {"measurement": "IC50", "setting": "[11]", "value": "25.6 µM (active)"}, {"measurement": "IC50", "setting": "[12]", "value": "2.42 µM (active)"}, {"measurement": "IC50", "setting": "[13]", "value": "12.1 µM (active)"}, {"measurement": "IC50", "setting": "[14]", "value": "8.44 µM (active)"}, {"measurement": "IC50", "setting": "[15]", "value": "4.09 µM (active)"}, {"measurement": "IC50", "setting": "[16]", "value": "34.6 µM (active)"}, {"measurement": "IC50", "setting": "[17]", "value": "7.26 µM (active)"}, {"measurement": "IC50", "setting": "[18]", "value": "2.32 µM (active)"}, {"measurement": "IC50", "setting": "[19]", "value": "22.9 µM (inactive)"}, {"measurement": "IC50", "setting": "[20]", "value": "5.27 µM (active)"}]}]}
